Patent US7589097B2, “Triazol[4,5-d] pyramidine derivatives and their use as purinergic receptor antagonists” (Vernalis Research Limited, priority 2001, dated 2009)
Structures can show the parent of a compound that is named as a salt.

SMILES	melting point
Cc1ccc(-c2nc(N)nc3c2nnn3Cc2cc(N)ccc2F)o1 (as salt: hydrochloride) [Example 84, 3-(5-amino-2-fluorobenzyl)-7-(5-methyl-2-furyl)-3H-[1,2,3]triazolo[4,5-d]pyrimidine-5-amine hydrochloride]	235.8 to 236.5 °C
COc1ccc(Cn2nnc3c(-c4ccco4)nc(N)nc32)cc1OC (as salt: trifluoroacetate) [Example 122, 3-(3,4-dimethoxybenzyl)-7-(2-furyl)-3H-[1,2,3]triazolo[4,5-d]pyrimidine-5-amine trifluoroacetate salt]	227.5 to 228.5 °C
Nc1ccc(F)c(Cn2nnc3c(-c4ccco4)nc(N)nc32)c1 [Example 79, 3-(5-amino-2-fluorobenzyl)-7-(2-furyl)-3H-[1,2,3]triazolo[4,5-d]pyrimidine-5-amine]	308.2 to 308.3 °C
COCc1cccc(Cn2nnc3c(-c4ccco4)nc(N)nc32)n1 [Example 112, 7-(2-furyl)-3-(6-methoxymethyl-2-pyridylmethyl)-3H-[1,2,3]triazolo[4,5-d]pyrimidine-5-amine]	190.4 to 191.4 °C
Nc1nc(-c2ccco2)c2nnn(Cc3cccc4cc[nH]c34)c2n1 [Example 154, 7-(2-furyl)-3-(7-indolylmethyl)-3H-[1,2,3]triazolo[4,5-d]pyrimidine-5-amine]	295.3 to 295.5 °C
Nc1nc(-c2ccco2)c2nnn(CC(=O)c3ccccc3[N+](=O)[O-])c2n1 [Example 235, 2-(5-amino-7-(2-furyl)-3H-[1,2,3]triazolo[4,5-d]pyrimidin-3-yl)-1-(2-nitrophenyl)ethanone]	231.6 to 231.7 °C
CC(C)c1cc(Cn2nnc3c(-c4ccco4)nc(N)nc32)nc(C(C)C)c1 [Example 199, 3-(4,6-diisopropyl-2-pyridylmethyl)-7-(2-furyl)-3H-[1,2,3]triazolo[4,5-d]pyrimidine-5-amine]	226.5 to 227.9 °C
CC(C)(C)OC(=O)n1cc(Cn2nnc3c(-c4ccco4)nc(N)nc32)c2ccccc21 [Example 204, tert-butyl 3-(5-amino-7-(2-furyl)-3H-[1,2,3]triazolo[4,5-d]pyrimidine-3-ylmethyl)indole-1-carboxylate]	143.6 to 144.5 °C
Nc1nc(-c2ccco2)c2nnn(Cc3cc(F)ccc3[N+](=O)[O-])c2n1 [Example 155, 3-(5-fluoro-2-nitrobenzyl)-7-(2-furyl)-3H-[1,2,3]triazolo[4,5-d]pyrimidine-5-amine]	258.6 to 258.7 °C
Nc1nc(-c2cccs2)c2nnn(Cc3ccccc3F)c2n1 [Example 35, 3-(2-fluorobenzyl)-7-(2-thienyl)-3H-[1,2,3]triazolo[4,5-d]pyrimidine-5-amine]	174 to 174.2 °C
CC(c1cccc(F)c1)n1nnc2c(-c3ccco3)nc(N)nc21 (stereo not drawn) [Example 260, 3-(1-(3-fluorophenyl)ethyl)-7-(2-furyl)-3H-[1,2,3]triazolo[4,5-d]pyrimidine-5-amine]	150.3 to 151 °C
Nc1nc(-c2ccco2)c2nnn(Cc3cccc(F)n3)c2n1 [Example 71, 3-(6-fluoro-2-pyridylmethyl)-7-(2-furyl)-3H-[1,2,3]triazolo[4,5-d]pyrimidine-5-amine]	228.7 to 228.9 °C
COc1ccc(C(=O)Cn2nnc3c(-c4ccco4)nc(N)nc32)cc1 [Example 229, 2-(5-amino-7-(2-furyl)-3H-[1,2,3]triazolo[4,5-d]pyrimidin-3-yl)-1-(4-methoxyphenyl)ethanone]	258.2 to 258.4 °C
COc1ccc(F)c(Cn2nnc3c(-c4ccco4)nc(N)nc32)c1 [Example 51, 3-(2-fluoro-5-methyoxybenzyl)-7-(2-furyl)-3H-[1,2,3]triazolo[4,5-d]pyrimidine-5-amine]	182.9 to 183.1 °C
C=CCOCc1cccc(Cn2nnc3c(-c4ccco4)nc(N(CC=C)CC=C)nc32)n1 [Example 182, 3-(6-Allyloxymethyl-2-pyridylmethyl)-N,N-diallyl-7-(2-furyl)-3H-[1,2,3]triazolo[4,5-d]pyrimidine-5-amine]	92.3 to 92.7 °C
Cc1noc(C)c1Cn1nnc2c(-c3ccco3)nc(N)nc21 [Example 91, 3-(3,5-dimethylisoxazol-4-ylmethyl)-7-(2-furyl)-3H-[1,2,3]triazolo[4,5-d]pyrimidine-5-amine]	284.3 to 284.5 °C
COc1cc([N+](=O)[O-])ccc1Cn1nnc2c(-c3ccco3)nc(N)nc21 [Example 159, 7-(2-furyl)-3-(2-methoxy-4-nitrobenzyl)-3H-[1,2,3]triazolo[4,5-d]pyrimidine-5-amine]	235.9 to 237.8 °C
Cc1ccc(Cn2nnc3c(-c4ccco4)nc(N)nc32)cc1N [Example 90, 3-(3-amino-4-methylbenzyl)-7-(2-furyl)-3H-[1,2,3]triazolo[4,5-d]pyrimidine-5-amine]	268.5 to 269.1 °C
Cc1ccnc(Cn2nnc3c(-c4ccco4)nc(N)nc32)c1 [Example 131, 7-(2-furyl)-3-(4-methyl-2-pyridylmethyl)-3H-[1,2,3]triazolo[4,5-d]pyrimidine-5-amine]	225.7 to 225.8 °C
Cc1ccc(-c2nc(N)nc3c2nnn3Cc2cccc(N)c2C)o1 [Example 180, 3-(3-amino-2-methylbenzyl)-7-(5-methyl-2-furyl)-3H-[1,2,3]triazolo[4,5-d]pyrimidine-5-amine]	278.4 to 279.9 °C

SMILES	melting point
Cc1ccc([N+](=O)[O-])c(Cn2nnc3c(-c4ccco4)nc(N)nc32)c1 [Example 96, 7-(2-furyl)-3-(5-methyl-2-nitrobenzyl)-3H-[1,2,3]triazolo[4,5-d]pyrimidine-5-amine]	226.6 to 226.9 °C
Cc1ccc(-c2nc(N)nc3c2nnn3Cc2c(F)cccc2F)o1 [Example 60, 3-(2,6-difluorobenzyl)-7-(5-methyl-2-furyl)-3H-[1,2,3]triazolo[4,5-d]pyrimidine-5-amine]	209.7 to 209.8 °C
Cc1nc(Cn2nnc3c(-c4ccco4)nc(N)nc32)cs1 [Example 100, 7-(2-furyl)-3-(2-methylthiazol-4-ylmethyl)-3H-[1,2,3]triazolo[4,5-d]pyrimidine-5-amine]	285.7 to 285.9 °C
Nc1nc(-c2ccco2)c2nnn(Cc3ccc(N)c(O)c3)c2n1 [Example 173, 3-(4-amino-3-hydroxybenzyl)-7-(2-furyl)-3H-[1,2,3]triazolo[4,5-d]pyrimidine-5-amine]	239.6 to 239.8 °C
CC(C)(C)OC(=O)n1ccc2c(Cn3nnc4c(-c5ccco5)nc(N)nc43)cccc21 [Example 138, tert-butyl 4-(5-amino-7-(2-furyl)-3H-[1,2,3]triazolo[4,5-d]pyrimidine-3-ylmethyl)indole-1-carboxylate]	58.5 to 62.6 °C
COc1cc(Cn2nnc3c(-c4ccco4)nc(N)nc32)ccc1[N+](=O)[O-] [Example 133, 7-(2-furyl)-3-(3-methoxy-4-nitrobenzyl)-3H [1,2,3]triazolo[4,5-d]pyrimidine-5-amine]	209.7 to 209.9 °C
Nc1nc(-c2ccco2)c2nnn(Cc3ccc(Cl)c(N)c3)c2n1 [Example 114, 3-(3-amino-4-chlorobenzyl)-7-(2-furyl)-3H-[1,2,3]triazolo[4,5-d]pyrimidine-5-amine]	256.7 to 257.1 °C
Cc1cnc(-c2nc(N)nc3c2nnn3Cc2ccccc2F)s1 [Example 38, 3-(2-fluorobenzyl)-7-(5-methyl-2-thiazolyl)-3H-[1,2,3]triazolo[4,5-d]pyrimidine-5-amine]	242 to 242.1 °C
CCc1cc(Cn2nnc3c(-c4ccco4)nc(N)nc32)ccn1 [Example 136, 3-(2-ethyl-4-pyridylmethyl)-7-(2-furyl)-3H-[1,2,3]triazolo[4,5-d]pyrimidine-5-amine]	172.7 to 173.2 °C
C[Si](C)(C)CCOCOc1cc([N+](=O)[O-])ccc1Cn1nnc2c(-c3ccco3)nc(N)nc21	136.5 to 137.6 °C
Cc1cccc(Cn2nnc3c(-c4ccco4)nc(N)nc32)c1 [Example 23, 7-(2-furyl)-3-(3-methylbenzyl)-3H-[1,2,3]triazolo[4,5-d]pyrimidine-5-amine]	187.3 to 187.7 °C
CSCc1cccc(Cn2nnc3c(-c4ccco4)nc(N)nc32)n1 [Example 234, 7-(2-furyl)-3-(6-methylthiomethyl-2-pyridylmethyl)-3H-[1,2,3]triazolo[4,5-d]pyrimidine-5-amine]	168.3 to 168.5 °C
Cc1ccc(-c2nc(N)nc3c2nnn3Cc2cccs2)o1 [Example 61, 7-(5-methyl-2-furyl)-3-(2-thienylmethyl)-3H-[1,2,3]triazolo[4,5-d]pyrimidine-5-amine]	193.8 to 194.1 °C
Nc1nc(-c2ccco2)c2nnn(Cc3ccc4nonc4c3)c2n1 [Example 111]	244.1 to 244.6 °C
COCCc1cccc(Cn2nnc3c(-c4ccco4)nc(N)nc32)n1 [Example 264, 7-(2-furyl)-3-(6-(2-methoxyethyl)-2-pyridylmethyl)-3H-[1,2,3]triazolo[4,5-d]pyrimidine-5-amine]	162 to 162.6 °C
Cc1csc(-c2nc(N)nc3c2nnn3Cc2cccc([N+](=O)[O-])c2)n1 [Example 109, 7-(4-methyl-2-thiazolyl)-3-(3-nitrobenzyl)-3H-[1,2,3]triazolo[4,5-d]pyrimidine-5-amine]	289.8 to 289.9 °C
CS(=O)(=O)N(Cc1cccc(Cn2nnc3c(-c4ccco4)nc(N)nc32)n1)Cc1cccc(Cn2nnc3c(-c4ccco4)nc(N)nc32)n1 [Example 237, N,N-bis(6-(5-amino-7-(2-furyl)-3H-[1,2,3]triazolo[4,5-d]pyrimidine-3-ylmethyl)-2-pyridylmethyl)methanesulphonamide]	259.3 to 259.4 °C
Nc1nc(-c2ccco2)c2nnn(CC(=O)c3ccccc3)c2n1 [Example 211, 2-(5-Amino-7-(2-furyl)-3H-[1,2,3]triazolo[4,5-d]pyrimidin-3-yl)-1-phenylethanone]	257.1 to 257.3 °C
Nc1nc(-c2ccco2)c2nnn(Cc3ccc(N)c(F)c3)c2n1 [Example 147, 3-(4-amino-3-fluorobenzyl)-7-(2-furyl)-3H-[1,2,3]triazolo[4,5-d]pyrimidine-5-amine]	> 200 °C (dec.)
